Experimental data taken from patent US20110039847A1, “AMIDE DERIVATIVES AS SIRTUIN MODULATORS” (Sirtris Pharmaceuticals, Inc, priority 2007, published 2011).

Biological target: T1, SIRT1 (Homo sapiens, UniProt Q96EB6)
T1 sequence (Q96EB6 1-747): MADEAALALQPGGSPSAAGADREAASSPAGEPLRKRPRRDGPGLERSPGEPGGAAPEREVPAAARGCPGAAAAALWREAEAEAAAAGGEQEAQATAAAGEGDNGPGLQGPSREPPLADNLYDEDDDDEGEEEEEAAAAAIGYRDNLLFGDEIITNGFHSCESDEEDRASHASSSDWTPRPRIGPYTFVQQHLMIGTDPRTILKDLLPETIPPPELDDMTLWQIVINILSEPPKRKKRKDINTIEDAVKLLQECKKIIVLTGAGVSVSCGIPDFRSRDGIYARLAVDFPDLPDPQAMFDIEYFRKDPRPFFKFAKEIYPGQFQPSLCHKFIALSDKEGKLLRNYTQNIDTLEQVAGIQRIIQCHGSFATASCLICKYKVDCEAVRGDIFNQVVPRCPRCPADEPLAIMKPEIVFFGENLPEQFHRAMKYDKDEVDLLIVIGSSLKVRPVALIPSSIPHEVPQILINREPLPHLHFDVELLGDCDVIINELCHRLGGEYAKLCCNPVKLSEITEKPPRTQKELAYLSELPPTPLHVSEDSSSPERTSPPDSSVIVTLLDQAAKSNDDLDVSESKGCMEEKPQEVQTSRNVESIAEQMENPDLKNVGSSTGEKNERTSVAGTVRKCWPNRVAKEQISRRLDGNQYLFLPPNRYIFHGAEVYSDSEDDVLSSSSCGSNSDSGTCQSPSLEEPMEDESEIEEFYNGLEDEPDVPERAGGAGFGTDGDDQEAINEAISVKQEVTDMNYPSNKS
Test: Mass spectrometry based SIRT1 deacetylation (activation) assay
Type: biochemical
Details: 0.5 μM peptide substrate, 120 μM βNAD+, 10 nM SIRT1, 25 min at 25° C.; for Emax: 25 min, read-out: % Fold Act. (percent maximum fold activation)

| SMILES | EC1.5 | Emax [%] |
| --- | --- | --- |
| COCCNc1cc(C(=O)Nc2ccccc2-c2nnc(N3CCN4CCC[C@H]4C3)s2)nc(-c2ccccc2)n1 [Compound 117] | A (EC1.5≦1 uM) | 150 to 300 |
| O=C1CN(c2cc(C(=O)Nc3ccccc3-c3nnc(N4CCN5CCC[C@H]5C4)s3)nc(-c3ccccc3)n2)CCN1 [Compound 118] | A (EC1.5≦1 uM) | 150 to 300 |
| CN(C)CCNc1cc(C(=O)Nc2ccccc2C(=O)N2CCCC2)nc(-c2ccccc2)n1 [Compound 120, 6-(2-(dimethylamino)ethylamino)-2-phenyl-N-(2-(pyrrolidine-1-carbonyl)phenyl)pyrimidine-4-carboxamide] | C (EC1.5>10 uM) | ≥ 300 |
| CN(C)CCNC(=O)c1ccccc1NC(=O)c1cc(NCCN(C)C)nc(-c2ccccc2)n1 [Compound 121, 6-(2-(dimethylamino)ethylamino)-N-(2-(2-(dimethylamino)ethylcarbamoyl)phenyl)-2-phenylpyrimidine-4-carboxamide] | B (EC1.5>1 and ≦10 uM) | 150 to 300 |
| CCN(CC)C(=O)c1ccccc1NC(=O)c1cc(NCCN(C)C)nc(-c2ccccc2)n1 [Compound 124, N-(2-(diethylcarbamoyl)phenyl)-6-(2-(dimethylamino)ethylamino)-2-phenylpyrimidine-4-carboxamide] | B (EC1.5>1 and ≦10 uM) | 150 to 300 |
| CCCCC(=O)c1ccccc1NC(=O)c1cc(NCCN(C)C)nc(-c2ccccc2)n1 [Compound 127] | B (EC1.5>1 and ≦10 uM) | 150 to 300 |
| CC(O)c1ccccc1NC(=O)c1cc(NCCN(C)C)nc(-c2ccccc2)n1 (centres unmarked) [Compound 133] | C (EC1.5>10 uM) | 150 to 300 |
| CC(=O)c1ccccc1NC(=O)c1cc(N2CCOCC2)nc(-c2ccccc2)n1 [Compound 134] | A (EC1.5≦1 uM) | 150 to 300 |
| CCN(CC)CCNc1cc(C(=O)Nc2ccccc2C(C)=O)nc(-c2ccccc2)n1 [Compound 135] | B (EC1.5>1 and ≦10 uM) | ≥ 300 |
| CN(C)CCNc1cc(C(=O)Nc2ccccc2Br)nc(-c2ccccc2)n1 [Compound 136] | B (EC1.5>1 and ≦10 uM) | 150 to 300 |
| CC(=O)c1ccccc1NC(=O)c1cc(NC2CCN(C(C)C)CC2)nc(-c2ccccc2)n1 [Compound 137] | A (EC1.5≦1 uM) | ≥ 300 |
| CC(=O)c1ccccc1NC(=O)c1cc(N2CCNCC2)nc(-c2ccccc2)n1 [Compound 138] | B (EC1.5>1 and ≦10 uM) | ≥ 300 |
| CC(=O)c1ccccc1NC(=O)c1cc(NC2CCNCC2)nc(-c2ccccc2)n1 [Compound 140] | A (EC1.5≦1 uM) | ≥ 300 |
| COCCN(CCOC)c1cc(C(=O)Nc2ccccc2C(C)=O)nc(-c2ccccc2)n1 [Compound 141] | A (EC1.5≦1 uM) | ≥ 300 |
| CC(=O)c1ccccc1NC(=O)c1cc(NC2CCN(C)CC2)nc(-c2ccccc2)n1 [Compound 143] | A (EC1.5≦1 uM) | ≥ 300 |
| CN(C)CCNc1cc(C(=O)Nc2ccccc2C(=O)NCCS(C)(=O)=O)nc(-c2ccccc2)n1 [Compound 149, 6-(2-(dimethylamino)ethylamino)-N-(2-(2-(methylsulfonyl)ethylcarbamoyl)phenyl)-2-phenylpyrimidine-4-carboxamide] | B (EC1.5>1 and ≦10 uM) | 150 to 300 |
| CN(C)CCNc1cc(C(=O)Nc2ccccc2C(=O)NCC[S+](C)[O-])nc(-c2ccccc2)n1 (centres unmarked) [Compound 152, 6-(2-(dimethylamino)ethylamino)-N-(2-(2-(methylsulfinyl)ethylcarbamoyl)phenyl)-2-phenylpyrimidine-4-carboxamide] | B (EC1.5>1 and ≦10 uM) | 150 to 300 |

Continued, values first:

| EC1.5 | Emax [%] | SMILES |
| --- | --- | --- |
| C (EC1.5>10 uM) | ≥ 300 | COCCNC(=O)c1ccccc1NC(=O)c1cc(NCCN(C)C)nc(-c2ccccc2)n1 [Compound 122, 6-(2-(dimethylamino)ethylamino)-N-(2-(2-methoxyethylcarbamoyl)phenyl)-2-phenylpyrimidine-4-carboxamide] |
| C (EC1.5>10 uM) | < 150 | CCCCNC(=O)c1ccccc1NC(=O)c1cc(NCCN(C)C)nc(-c2ccccc2)n1 [Compound 123, N-(2-(butylcarbamoyl)phenyl)-6-(2-(dimethylamino)ethylamino)-2-phenylpyrimidine-4-carboxamide] |
| B (EC1.5>1 and ≦10 uM) | ≥ 300 | CNC(=O)c1ccccc1NC(=O)c1cc(NCCN(C)C)nc(-c2ccccc2)n1 [Compound 125, 6-(2-(dimethylamino)ethylamino)-N-(2-(methylcarbamoyl)phenyl)-2-phenylpyrimidine-4-carboxamide] |
| B (EC1.5>1 and ≦10 uM) | 150 to 300 | CCC(=O)c1ccccc1NC(=O)c1cc(NCCN(C)C)nc(-c2ccccc2)n1 [Compound 126] |
| B (EC1.5>1 and ≦10 uM) | 150 to 300 | CN(C)CCNc1cc(C(=O)Nc2ccccc2C(=O)Nc2ccccc2)nc(-c2ccccc2)n1 [Compound 128, 6-(2-(dimethylamino)ethylamino)-2-phenyl-N-(2-(phenylcarbamoyl)phenyl)pyrimidine-4-carboxamide] |
| B (EC1.5>1 and ≦10 uM) | 150 to 300 | CN(C)CCNc1cc(C(=O)Nc2ccccc2C(=O)NCCC(=O)O)nc(-c2ccccc2)n1 [Compound 130, 3-(2-(6-(2-(dimethylamino)ethylamino)-2-phenylpyrimidine-4-carboxamido)benzamido)propanoic acid] |
| B (EC1.5>1 and ≦10 uM) | 150 to 300 | CN(C)CCNc1cc(C(=O)Nc2ccccc2C(=O)c2ccccc2)nc(-c2ccccc2)n1 [Compound 131] |
| B (EC1.5>1 and ≦10 uM) | 150 to 300 | C/C(=N\O)c1ccccc1NC(=O)c1cc(NCCN(C)C)nc(-c2ccccc2)n1 [Compound 132] |
| B (EC1.5>1 and ≦10 uM) | 150 to 300 | CC(C)C(=O)c1ccccc1NC(=O)c1cc(NCCN(C)C)nc(-c2ccccc2)n1 [Compound 142] |
| A (EC1.5≦1 uM) | 150 to 300 | Cc1ccc(NC(=O)c2ccccc2NC(=O)c2cc(NCCN(C)C)nc(-c3ccccc3)n2)cc1 [Compound 144, 6-(2-(dimethylamino)ethylamino)-2-phenyl-N-(2-(p-tolylcarbamoyl)phenyl)pyrimidine-4-carboxamide] |
| A (EC1.5≦1 uM) | ≥ 300 | CN(C)CCNc1cc(C(=O)Nc2ccccc2C(=O)Nc2cccc(Cl)c2)nc(-c2ccccc2)n1 [Compound 145, N-(2-(3-chlorophenylcarbamoyl)phenyl)-6-(2-(dimethylamino)ethylamino)-2-phenylpyrimidine-4-carboxamide] |
| B (EC1.5>1 and ≦10 uM) | ≥ 300 | Cc1cccc(NC(=O)c2ccccc2NC(=O)c2cc(NCCN(C)C)nc(-c3ccccc3)n2)c1 [Compound 146, 6-(2-(dimethylamino)ethylamino)-2-phenyl-N-(2-(m-tolylcarbamoyl)phenyl)pyrimidine-4-carboxamide] |
| A (EC1.5≦1 uM) | ≥ 300 | CN(C)CCNc1cc(C(=O)Nc2ccccc2C(=O)Nc2cccc(C(N)=O)c2)nc(-c2ccccc2)n1 [Compound 147, N-(2-(3-carbamoylphenylcarbamoyl)phenyl)-6-(2-(dimethylamino)ethylamino)-2-phenylpyrimidine-4-carboxamide] |
| B (EC1.5>1 and ≦10 uM) | ≥ 300 | CSCCNC(=O)c1ccccc1NC(=O)c1cc(NCCN(C)C)nc(-c2ccccc2)n1 [Compound 148, 6-(2-(dimethylamino)ethylamino)-N-(2-(2-(methylthio)ethylcarbamoyl)phenyl)-2-phenylpyrimidine-4-carboxamide] |
| A (EC1.5≦1 uM) | ≥ 300 | CN(C)CCNc1cc(C(=O)Nc2ccccc2C(=O)Nc2ccccc2C(N)=O)nc(-c2ccccc2)n1 [Compound 150, N-(2-(2-carbamoylphenylcarbamoyl)phenyl)-6-(2-(dimethylamino)ethylamino)-2-phenylpyrimidine-4-carboxamide] |
| C (EC1.5>10 uM) | 150 to 300 | CN(C)CCNc1cc(C(=O)Nc2ccccc2C(=O)N(C)c2ccccc2)nc(-c2ccccc2)n1 [Compound 151, 6-(2-(dimethylamino)ethylamino)-N-(2-(methyl(phenyl)carbamoyl)phenyl)-2-phenylpyrimidine-4-carboxamide] |
| C (EC1.5>10 uM) | 150 to 300 | CN(C)CCNc1cc(C(=O)Nc2ccccc2C(=O)Nc2ccc(Cl)c(Cl)c2)nc(-c2ccccc2)n1 [Compound 153, N-(2-(3,4-dichlorophenylcarbamoyl)phenyl)-6-(2-(dimethylamino)ethylamino)-2-phenylpyrimidine-4-carboxamide] |
